Data as given in US20100035896A1, “Combination of N-(3-methoxy-5-methylpyrazin-2-yl)-2-(4-[1,3,4-oxadiazol-2-yl]phenyl)pyridine-3-sulphonamide and an anti-mitotic cytotoxic agent” (ASTRAZENECA AB, priority 2004, published 2010).
Ends that are not written are not given here.

Assays:
[1] = tested on: Human prostate tumour cells (PPC-1); assay: Viable cell numbers of prostate tumour cells by MTT assay; assay type: cell-based; details: PPC-1 cells, FIG. 3; for numbers of viable prostate cells remaining in culture: cytotoxic alone at 10^-6, 10^-8 or 10^-10 M for 24 hours
Text: ** OVCA 433 was established from ascites obtained from a patient with advanced serous ovarian adenocarcinoma (Tsa, S W et al., (1995) Exp. Cell Res. 218: 499-507) and HEY was derived from a xenograft of a peritoneal deposit of a cystoadeonocarcinoma of the ovary (Buick, R. N. et al., (1985) Cancer Research 45: 3668-3676). PPC-1 cells were originally derived from a human prostate tumour and were obtained from the laboratory of Dr. J. Nelson, University of Pittsburgh).
(§1) In vitro studies in ovarian cells: Human ovarian tumour cell lines (OVCA 433 and HEY) were maintained in culture media containing serum until sufficient numbers were available for experimentation. At this time the cells were transferred into media without serum. After 24 hours of serum starvation, cells were treated with either Compound (I) (1 μM) or paclitaxel (60 nM), or Compound (I)+paclitaxel. Following treatment for 24 hours, apoptosis was measured by a standard cell detection ELISA Plus kit (Boehringer Manheim). In vitro studies in prostate cells: Human prostate tumour cells (PPC-1) were maintained in culture medium containing serum until sufficient numbers were available for experimentation. After this time cells were transferred into media without serum. After 23 hours of serum starvation cells were treated with either endothelin 1 (10^−7M) or endothelin 1+Compound (I) at 10^−7M. An additional group of cells received vehicle control alone. One hour later cells were treated with paclitaxel or docetaxel at either 10^−6M, 10^−8M or 10^−10M for 24 hours. At the end of this 24 hour period, viable cell numbers were measured by a standard MTT assay (Mossman, J Inmunol Methods. (1983) 65, 55-63). In vivo studies: Athymic mice were given subcutaneous injections of 1.5×10^6 HEY cells into the flank. After 7 days, when established tumours had formed, mice were randomized to 4 treatment groups with 10 mice in each group. One group was treated with Compound (I) given by daily intraperitoneal injections (10 mg/kg/day) for 21 days. A second group received intravenous injections of paclitaxel (20 mg/kg) every 4 days for 3 doses. A third group received both paclitaxel and Compound (I) and a fourth group was given injections in the same way using vehicle alone. The experiments were replicated three times.

[2] = tested on: Human ovarian tumour cell lines (OVCA 433 and HEY); assay: Apoptosis in serum-starved ovarian tumour cell lines, cell detection ELISA Plus kit; assay type: cell-based; details: HEY and OVCA 433 cells, 24 h serum starvation, 24 h treatment; Compound (I) 1 μM, paclitaxel 60 nM, alone or combined; FIG. 1
Text: To evaluate the effect of Compound (I) in combination with an anti-mitotic cytotoxic agent (paclitaxel) on the growth of various carcinoma cells, we utilised two established human ovarian cell lines (HEY and OVCA 433**) which express functional endothelin A (ETa) receptors and secrete high levels of endothelin-1 (ET-1). ET-1 is an anti-apoptotic factor in many cell types, having this effect via ETa receptors. ** OVCA 433 was established from ascites obtained from a patient with advanced serous ovarian adenocarcinoma (Tsa, S W et al., (1995) Exp. Cell Res. 218: 499-507) and HEY was derived from a xenograft of a peritoneal deposit of a cystoadeonocarcinoma of the ovary (Buick, R. N. et al., (1985) Cancer Research 45: 3668-3676). PPC-1 cells were originally derived from a human prostate tumour and were obtained from the laboratory of Dr. J. Nelson, University of Pittsburgh). In vitro studies in ovarian cells: Human ovarian tumour cell lines (OVCA 433 and HEY) were maintained in culture media containing serum until sufficient numbers were available for experimentation. […] Following treatment for 24 hours, apoptosis was measured by a standard cell detection ELISA Plus kit (Boehringer Manheim). […] At the end of this 24 hour period, viable cell numbers were measured by a standard MTT assay (Mossman, J Inmunol Methods. (1983) 65, 55-63). […]

[3] = tested on: HEY ovarian cell xenografts; assay: Growth of subcutaneous HEY ovarian carcinoma xenografts in athymic mice; assay type: in vivo; details: Compound (I) 10 mg/kg/day i.p. for 21 days, paclitaxel 20 mg/kg i.v. every 4 days for 3 doses, alone or both, FIG. 2
Experimental: as §1, with “After 7 days, when established tumours had formed, mice were randomized to 4 treatment groups with 10 mice in each group. One group was treated with Compound (I) given by daily intraperitoneal injections (10 mg/kg/day) for 21 days. A second group received intravenous injections of paclitaxel (20 mg/kg) every 4 days for 3 doses. A third group received both paclitaxel and Compound (I) and a fourth group was given injections in the same way using vehicle alone. The experiments were replicated three times.” left out

endothelin-1 (CSCSSLMDKECVYFCHLDIIW; ends and bridges not checked; cysteine pairing not given here; UniProt P05305 53-73, looked up) [endogenous 21 amino acid peptide, anti-apoptotic factor acting via ETa receptors]
effect on the paclitaxel- or docetaxel-induced reduction in viable cell number ([1]; endothelin 1 10^-7 M given one hour before paclitaxel or docetaxel): reversed

CC(=O)O[C@H]1C(=O)[C@@]2(C)[C@H]([C@H](OC(=O)c3ccccc3)[C@]3(O)C[C@H](OC(=O)[C@H](O)[C@@H](NC(=O)c4ccccc4)c4ccccc4)C(C)=C1C3(C)C)[C@]1(OC(C)=O)CO[C@@H]1C[C@@H]2O [paclitaxel, Paclitaxel]
effect on apoptosis [2]: no statistically significant effects | numbers of viable prostate cells remaining in culture [1]: significantly reduced | inhibition of HEY ovarian cell xenografts (tumour growth) [3]: degree of inhibition was similar

COc1nc(C)cnc1NS(=O)(=O)c1cccnc1-c1ccc(-c2nnco2)cc1 [Compound (I), N-(3-methoxy-5-methylpyrazin-2-yl)-2-(4-[1,3,4-oxadiazol-2-yl]phenyl)pyridine-3-sulphonamide]
effect on apoptosis [2]: no statistically significant effects | effect on the endothelin-1 reversal of cytotoxic-induced reduction in viable cell number ([1]; endothelin 1 10^-7 M + Compound (I) 10^-7 M, one hour before paclitaxel or docetaxel): blocked | inhibition of HEY ovarian cell xenografts (tumour growth) [3]: significant inhibition

CC(=O)O[C@@]12CO[C@@H]1C[C@H](O)[C@@]1(C)C(=O)[C@H](O)C3=C(C)[C@@H](OC(=O)[C@H](O)[C@@H](NC(=O)OC(C)(C)C)c4ccccc4)C[C@@](O)([C@@H](OC(=O)c4ccccc4)[C@H]21)C3(C)C [docetaxel, Docetaxel]
numbers of viable prostate cells remaining in culture [1]: significantly reduced
